Source: patent US9994554B2, “Barbiturate and thiobarbiturate compounds for use in cancer therapy” (NUHOPE, LLC, priority 2011, dated 2018)
Several values for one entry are separate records, joined by “and”; a condition that tells them apart may be missing. Identical values can stand only once. Like-named read-outs stand apart in the source and are kept apart here. *1 amine or outer side, *2 acyl side, *3 side chain or, on linkers, in order; H or OH if unused. Where a SMILES comes first, the peptide text is derived from it. Bridges are numbered along the chain shown (N, C = ends). Roman numbers before positions name the chains, in order. [ ]: non-standard residue; d: D form. Actinocin(9to1) = Cc1c2oc3c(C)ccc(C(=O)[*:1])c3nc-2c(C(=O)[*:2])c(N)c1=O; NMeV = CN[C@H](C(=O)O)C(C)C; Sar = CNCC(=O)O

Assays:
[1] = test system: U87-MG cells; assay: U87-MG resazurin cell assay (Example 13); assay type: cell-based; conditions: Homo sapiens, U-87 MG
Protocol: U87-MG cells were obtained from the ATCC, LGC Standards (#HTB-14). The cells were screened for mycoplasma (Mycoplasma Experience) and maintained in Biowhittaker Alpha MEM (Lonza #BE02-002F+10% dialyzed US FBS serum (Invitrogen #26400-044), 1% Penstrep (Gibco #15140-122).
Compounds to be tested were transferred into column 1 of a hit plate (96-well PPV Greiner #651201). 20 ul of DMSO was added to columns 2 to 11. The top concentration was 10 mM.
Serial dilution, ten-point one in three dilution curves were created using Perkin Elmer Janus (20 ul clear Robopack disposable tips #6000677 used).
2 ul of each of the compounds was transferred by pre-dispensing into black, clear bottom 96-well CellBIND Corning plates (Fisher #DPS-184-030R) using Platemate 2×2 (ThermoFisher Darts #5506).
200 μl of U87-MG cells were added to columns 1 to 11 at a density of 1000 cells per ml, and media only was dispensed into control column 12 using Wellmate (Small bore tubing set #201-30002).
After 5 days (120 hrs) incubation at 37° C. under 5% CO2 in a humidified incubator, the assay was “stopped” by addition of Resazurin sodium salt at 0.5 mM final concentration (Sigma R7017). The plates were incubated for a further 4 hrs before resorufin readout was taken from a Perkin Elmer EnVision, 550 nm excitation (photo550, Barcode 312), 580 nm emission (M580, Barcode 233), Top Mirror BODIPY (D555, Barcode 405).

[2] = test system: CCF-STTG1; assay: CCF-STTG1 resazurin cell assay (Example 14); assay type: cell-based; conditions: Homo sapiens, read-out: Brain - Astrocytoma CCF-STTG1 pXC50 (converted)
Protocol: (§1) In this assay, cell lines were tested broadly using the same method as the U87 cell line assay of Example 13. NCI-H1299, CCF-STTG1 and Hep G2 cells were obtained from the ATCC. These cell lines were tested as previously described with the following modifications. NCI-H1299, CCF-STTG1 were maintained in RPMI-1640 Medium plus 10% fetal bovine serum and 1% penicillin/streptomycin, while Hep G2 cells were maintained in Eagle's Minimum Essential Medium plus 10% fetal bovine serum and 1% penicillin/streptomycin. Cells were plated at a density of 1×10^4 per ml except CFF-STTG1 cells which were seeded at a density of 2.5×10^4 per ml.

[3] = test system: Hep G2; assay: Hep G2 resazurin cell assay (Example 14); assay type: cell-based; conditions: Homo sapiens, HepG2; read-out: Liver - Hepatocellular carcinoma Hep G2 pXC50 (converted)
Protocol: as §1

[4] = test system: NCI-H1299; assay: NCI-H1299 resazurin cell assay (Example 14); assay type: cell-based; conditions: Homo sapiens, read-out: Lung - Non small cell lung carcinoma NCI-H1299 pXC50 (converted)
Protocol: as §1

[5] = test system: MCF10A; assay: Cytotoxicity, MCF10A; assay type: cell-based, human; conditions: Homo sapiens, MCF-10A; immortalized, non-transformed mammary epithelial cell line
[6] = test system: CCF-STTG1; assay: cells; conditions: for IC50: Homo sapiens, CCF-STTG1, read-out: IC50 (μM) CCF-STTG1
Protocol: (§2) Human neuroblastoma cell lines were cultured in Dulbecco's Modified Eagle Medium (DMEM)/F12 media. Human glioma cells were ordered from American Type Culture Collection (ATCC, Manassas, Va.), and maintained in DMEM with 4×10^−3M L-glutamine, 100 U/ml penicillin, 100 μg/ml streptomycin, and 10% fetal bovine serum (FBS). All experiments were performed at 37° C. in 5% CO2 atmosphere under cell culture conditions. Prior to γ-radiation or exposure to chemotherapeutic agents, the glioma cells were plated at a density of 156 to 8,000 cells per well in 96 well plates to account for differences in growth rates, and to obtain similar cell densities for the experimental manipulations, and cultured overnight. Then cells received different dosages of γ-radiation from a ^60Co source GammaCell 220 (Nordion International Inc, Ontario, Canada) or chemotherapeutic agents for another 2-6 days. Cell cytotoxicity assay was determined by MTS [3-(4,5-dimethylthiazol-2-yl)-5-(3-carboxymethoxyphenyl)-2-(4-sulfophenyl)-2H-tetrazolium, inner salt] Cell Proliferation Assay (Promega, Madison, Wis.) or sulforhodamine B (SRB) assay at the end of the exposure period (47, 48).
Temodar®-resistant cell lines were used to screen for compounds having the ability to decelerate the growth of, or kill, Temodar®-resistant cells. The efficacy of over 15,000 different compounds in the Drug Discovery Core at Pennsylvania State Hershey Medical Center was tested on Temodar®-resistant human neuroblastoma SH-SY5Y and human glioma CCF-STTG1 cell lines with a colorimetric cytotoxicity assay, the sulforhodamine B (SRB) assay (53).
(§3) Chemotype moiety compounds of CC-I were also tested on the Temodar-resistant CCF-STTG1 and Temodar®-sensitive U87-MG cell lines. The glioma cell culture and treatment is as described above.
(§4) The human glioma CCF-STTG1 cell lines were plated at a density of 5,000 cells per well in 96 well plates under standard DMEM cell culture conditions and then exposed to different concentrations of CC-I, merbarone, or ICRF-193 for 5 days. Merbarone and ICRF-193 are both topoisomerase II inhibitors (55, 56).

[7] = test system: OVCAR-3; assay: Cytotoxicity, ovarian cancer cells; assay type: cell-based; conditions: OVCAR-3; human ovarian carcinoma cell line
Protocol: To assess the effect of CC-I on the ovarian cancer cells, the cells were cultured overnight at a density of 5,000 to 10,000 cells per well in 96 well plates. Then the cells were treated with different concentrations of CC-I (Formula IV) or Formula V for another 3-6 days before cytotoxicity assay using MTS or SRB assay. The IC50 or LD50, 50% inhibition or lethal dose, of compounds is also determined using statistical software (GraphPad) as a general indicator of toxicity.

[8] = test system: MCF7; assay: Cytotoxicity, MCF7; assay type: cell-based; conditions: MCF7; human breast adenocarcinoma cell line
Protocol: (§5) Human neuroblastoma cell lines were cultured in Dulbecco's Modified Eagle Medium (DMEM)/F12 media. Human glioma cells were ordered from American Type Culture Collection (ATCC, Manassas, Va.), and maintained in DMEM with 4×10^−3M L-glutamine, 100 U/ml penicillin, 100 μg/ml streptomycin, and 10% fetal bovine serum (FBS). All experiments were performed at 37° C. in 5% CO2 atmosphere under cell culture conditions. Prior to γ-radiation or exposure to chemotherapeutic agents, the glioma cells were plated at a density of 156 to 8,000 cells per well in 96 well plates to account for differences in growth rates, and to obtain similar cell densities for the experimental manipulations, and cultured overnight. […] Cell cytotoxicity assay was determined by MTS [3-(4,5-dimethylthiazol-2-yl)-5-(3-carboxymethoxyphenyl)-2-(4-sulfophenyl)-2H-tetrazolium, inner salt] Cell Proliferation Assay (Promega, Madison, Wis.) or sulforhodamine B (SRB) assay at the end of the exposure period (47, 48).

[9] = test system: SW1088; assay: Cytotoxicity (MTS or SRB assay), SW1088; assay type: cell-based, human
Protocol: Human glioma cells were ordered from American Type Culture Collection (ATCC, Manassas, Va.), and maintained in DMEM with 4×10^−3M L-glutamine, 100 U/ml penicillin, 100 μg/ml streptomycin, and 10% fetal bovine serum (FBS). All experiments were performed at 37° C. in 5% CO2 atmosphere under cell culture conditions. […] Then cells received different dosages of γ-radiation from a ^60Co source GammaCell 220 (Nordion International Inc, Ontario, Canada) or chemotherapeutic agents for another 2-6 days. Cell cytotoxicity assay was determined by MTS [3-(4,5-dimethylthiazol-2-yl)-5-(3-carboxymethoxyphenyl)-2-(4-sulfophenyl)-2H-tetrazolium, inner salt] Cell Proliferation Assay (Promega, Madison, Wis.) or sulforhodamine B (SRB) assay at the end of the exposure period (47, 48).

[10] = test system: SVGp12; assay: Cytotoxicity, SVGp12; assay type: cell-based; conditions: SVGp12; SV40 transformed human astrocyte cell line
Protocol: as §5

[11] = test system: U87-MG; assay: cells; conditions: Homo sapiens, U-87 MG, read-out: IC50 (μM) U87-MG
Protocol: as §2, §3, §4

[12] = test system: U251; assay: Cytotoxicity (MTS or SRB assay), U251; assay type: cell-based; conditions: U-251; human astrocytoma or glioblastoma cell line
Protocol: as §5

[13] = test system: C282Y/SH-SY5Y; assay: cells; assay type: cell-based; conditions: C282Y HFE transfected human neuroblastoma SH-SY5Y
Protocol: as §5

[14] = test system: WT/SH-SY5Y; assay: Cytotoxicity, WT/SH-SY5Y neuroblastoma; assay type: cell-based; conditions: wild type HFE transfected human neuroblastoma SH-SY5Y
Protocol: as §5

[15] = test system: CCF-STTG1 cells; assay: FITC-Annexin V/propidium iodide apoptosis assay; assay type: cell-based, human; conditions: CCF-STTG1, at 0.05 μg/ml (39.8 nM)
Protocol: An FITC-labeled Annexin V/propidium iodide apoptosis assay kit (Molecular Probes) was used to determine whether CC-I induces apoptosis in an astrocytoma cell line. […] The percentage of apoptotic cells by the CC-I treatment in CCF-STTG1 cells is from 10.9±0.16% at 5 pig/ml ([…]) to 48.7±0.33% at 10 μg/ml (36.2 μM). By comparison, the positive control, actinomycin D, induced apoptosis in 47.8±0.04% of the cells at 0.05 μg/ml (39.8 nM).

[16] = U87-MG, 5 days (120 hrs) incubation, read-out: Activity Score (Mean pXC50) (converted)
[17] = read-out: Brain - Glioblastoma U87 pXC50 (converted)

Row | Structure (SMILES) | IC50 [1, 16] | IC50 [1, 17] | IC50 [2] | IC50 [3] | IC50 [4] | also measured
1 | CCN1C(=O)C(=C/C=C/c2ccco2)C(=O)N(CC)C1=O [DDD00124802] | 10 to 31.6 µM | 31.6 to 100 µM | 31.6 to 100 µM | 10 to 31.6 µM | 1 to 10 µM | 
2 | O=C1NC(=O)C(=C/C=C/c2ccco2)C(=O)N1 [DDD00124807] | 10 to 31.6 µM | 10 to 31.6 µM | 10 to 31.6 µM | 10 to 31.6 µM | 1 to 10 µM | 
3 | CCN1C(=O)NC(=O)/C(=C\C=C\c2ccco2)C1=O [DDD00124808] | 10 to 31.6 µM | 10 to 31.6 µM | 10 to 31.6 µM | 10 to 31.6 µM | 1 to 10 µM | 
4 | CCN1C(=O)NC(=O)/C(=C\C=C\c2ccccc2)C1=O [DDD00124809] | 1 to 10 µM | 1 to 10 µM | 1 to 10 µM | 1 to 10 µM |  | 
5 | O=C1NC(=S)NC(=O)C1=C/C=C/c1ccco1 [DDD00124818] | 10 to 31.6 µM | 10 to 31.6 µM | 10 to 31.6 µM | > 100 µM | 1 to 10 µM | 
6 | CCN1C(=O)C(=C/C=C/c2ccccc2)C(=O)N(CC)C1=S [DDD00124821] | 31.6 to 100 µM | 31.6 to 100 µM | 10 to 31.6 µM | > 100 µM | 10 to 31.6 µM | 
7 | CCN1C(=O)C(=C/C=C/c2ccccc2)C(=O)N(CC)C1=O [DDD00125643] | 1 to 10 µM | 1 to 10 µM | 1 to 10 µM | 10 to 31.6 µM |  | 
8 | CN1C(=O)C(=C/C=C/c2cccc(F)c2)C(=O)N(C)C1=O [DDD00197351] | 1 to 10 µM |  |  |  |  | 
9 | CN1C(=O)C(C(C)(O)/C=C/c2ccccc2)C(=O)N(C)C1=O (stereo not shown) [DDD00197352] | > 100 µM |  |  |  |  | 
10 | CCN1C(=O)/C(=C/C=C/c2cccc(F)c2)C(=O)NC1=S [DDD00197354] | 10 to 31.6 µM |  |  |  |  | 
11 | CCN1C(=O)/C(=C/C=C/c2ccccc2OC)C(=O)NC1=S [DDD00197355] | 1 to 10 µM |  |  |  |  | 
12 | CN(C)c1ccccc1/C=C/C=C1C(=O)NC(=O)NC1=O [DDD00197357] | 1 to 10 µM |  |  |  |  | 
13 | Cn1cc(/C=C/c2ccccc2)c(=O)n(C)c1=O [DDD00197671] | > 100 µM |  |  |  |  | 
14 | CN1C(=O)C(=C/C=C/C2CCCCC2)C(=O)N(C)C1=O [DDD00197709] | 10 to 31.6 µM |  |  |  |  | 
15 | O=C1NC(=S)NC(=O)C1=C/C=C/c1ccccc1 [Formula V] |  |  |  |  |  | IC50 [5]: 1.7 µM; IC50 [6]: 3 µM; cytotoxicity to CCF-STTG1 cell lines (in words) ([6]; Temodar-resistant CCF-STTG1): greatest toxicity; IC50 [7]: 4.3 µM; IC50 [8]: 3.2 µM; IC50 ([9]; Homo sapiens, SW1088, read-out: IC50 (μM) SW1088): 1.2 µM; LD50 ([9]; SW-1088 astrocytoma cells): 0.3 μg/ml and 1.2 μM; IC50 [10]: 1.6 µM; IC50 [11]: 1.8 µM; IC50 [12]: 2.5 µM
16 | Cn1nnc2c(C(N)=O)ncn2c1=O [Temodar ®, Temozolomide, reference compound] |  | 10 to 31.6 µM | > 100 µM | > 100 µM | > 100 µM | IC50 [13]: 92 µM; IC50 [6]: 306 µM; IC50 [14]: 103 µM; IC50 ([9]; SW1088, human astrocytoma or glioblastoma cell line, read-out: IC50 (μM) SW1088): 29.5 µM; IC50 [11]: 13.6 µM; IC50 [12]: 47.2 µM
17 | Cc1c2oc3c(C)ccc(C(=O)N[C@@H]4C(=O)N[C@H](C(C)C)C(=O)N5CCC[C@H]5C(=O)N(C)CC(=O)N(C)[C@@H](C(C)C)C(=O)O[C@@H]4C)c3nc-2c(C(=O)N[C@@H]2C(=O)N[C@H](C(C)C)C(=O)N3CCC[C@H]3C(=O)N(C)CC(=O)N(C)[C@@H](C(C)C)C(=O)O[C@@H]2C)c(N)c1=O [actinomycin D, reference compound] (I: T[dV]P[Sar][NMeV] / II: T[dV]P[Sar][NMeV]; ester I:1-I:C, II:1-II:C; linker I:N-II:N via Actinocin(9to1)) |  |  |  |  |  | percentage of apoptotic cells [15]: 47.8±0.04%
